The values that follow come from patent US12478628B2, “Germ cell nuclear factor ligands and methods of use thereof” (Saint Louis University, priority 2020, dated 2025).

The test system of assay [1] is i3 neurons differentiated from iPSCs. The assay is described as follows: qPCR of pluripotency and neuronal markers after iPSC differentiation. Format: cell-based. As to conditions: qPCR upon ligand treatment. Here is the method:
qPCR using iPSC samples and differentiated neurons samples to make sure the primers worked. These primers include: • Housekeeping genes for normalization: CYCLO, 36B4, GAPDH • Stem cell markers: OCT4, SOX2, NANOG, REX1 • Neuronal markers: MAP2, MAPT, TUBB3, NCAM1
iPSC Differentiation to Neurons. For growing neurons from iPSC cells, the method described by Femandopulle were employed (Femandopulle et al., 2018). Briefly, cells were treated with doxycycline to turn on expression of Neurogenin-2 (NGN2), which irreversibly sets these cells on the path of neuronal differentiation. The cells were treated with doxycycline for 3 days (changing media every day), and then re-plate the cells onto new plates coated with PLO. For each time point, 21 samples were prepared (DMSO and ligands 34 and 80 at different concentrations, in triplicate).
An overview of the experiment timeline is shown as well: • Day 0: Plate iPSC on matrigel-coated 12-well plates • Day 2: Treat cells −/+ ligands in iPSC media • Day 3: Refeed cells induction media +Doxycycline −/+ ligands to start neuronal differentiation (Day 0 of differentiation) • Day 4: Refeed cells induction media +Doxycycline −/+ ligands (Day 1 of differentiation) • Day 5: Refeed cells induction media +Doxycycline −/+ ligands (Day 2 of differentiation) • Day 6: Take pictures; Refeed cells neuronal media −/+ ligands (Day 3 of differentiation) • Day 7: Collect cells for RNA/qPCR (Day 4 of differentiation)

Another assay concerns the target T1, SF-1 (NR5A1) LBD (Homo sapiens, UniProt Q13285).
T1 construct: human SF-1 LBD (residues 219-461); hexahistidine tag with 3C protease site; made in house; host or cells: E. coli BL(21) DE3
The assay is described as follows: DSF specificity assay, SF-1. Type of assay: binding. How it is done:
(§1) Protein Expression and Purification. Human GCNF (NR6A1) LBD (residues 248-480) and mutants F284A/F361A, human LRH-1 (NR5A2) LBD (residues 291-541), human RXRα LBD (residues 223-462), human COUP-TF I LBD (residues 184-410) and human SF-1 LBD (residues 219-461) were subcloned in pET45b(+) plasmid (Novagen) were expressed in E. coli BL(21) DE3 cells in terrific broth with 0.1 mg/mL ampicillin as 3C protease-cleavable hexahistidine-tagged fusion proteins. The bacterial culture was grown at 37° C. to an optical density of 0.8 to 1.0 at 600 nm. Protein expression was induced by adding 1 mM IPTG and was allowed to proceed for 14 h at 22° C. […]
(§2) DSF Assay. […] A total of 450 compounds (Life Chemicals) previously selected from a nuclear-receptor-biased library targeting REV-ERB were analyzed. Thermal stability was assessed on a Quantstudio 6 instrument (Biosystems) by ramping the temperature from 25° C. to 95° C. at 0.05° C./s and protein melt shifts were subsequently quantified by Boltzmann-derived melting temperature (Tm) using the Protein Thermal Shift (ThermoFisher) software. […]

The test system of assay [2] is BeWo human choriocarcinoma cells. The assay is described as follows: qPCR of GCNF target gene expression in BeWo cells. Format: cell-based. The conditions noted are these: 20 μM, 24 h. How it is done:
BeWo cells were cultured in DMEM-F12 medium (Gibco) with 10% FBS (Gembio) and plated at 75,000 cells per well in 12-well plates (Corning). 24-hours after plating, cells were treated with either DMSO, ligand 34 or ligand 80 (20 μM) at 4 wells/group. RNA was isolated 24-hours after drug treatment and cDNA was synthesized for the QPCR assays using Bio-Rad iScript cDNA synthesis kit per manufacturer's protocol. Expression was analyzed by QPCR using a custom array plate (Bio-Rad PrimePCR) per manufacturer's protocol; n=4 was used for cell-based assays and plotted as mean±SEM.

The target in the next assay is T2, GCNF LBD F361A (Homo sapiens, UniProt Q15406, F361A).
T2 construct: Human GCNF (NR6A1) LBD (residues 248-480) and mutants F284A/F361A; hexahistidine tag with 3C protease site; made in house; host or cells: E. coli BL(21) DE3
T2 sequence (Q15406 248-480 F361A): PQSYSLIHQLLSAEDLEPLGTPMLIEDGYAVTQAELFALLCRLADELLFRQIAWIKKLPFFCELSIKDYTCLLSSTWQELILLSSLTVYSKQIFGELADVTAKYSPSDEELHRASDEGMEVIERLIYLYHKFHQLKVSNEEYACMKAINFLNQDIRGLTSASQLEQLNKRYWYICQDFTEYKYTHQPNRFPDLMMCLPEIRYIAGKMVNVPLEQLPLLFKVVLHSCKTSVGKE
Put plainly: DSF of GCNF LBD mutant F361A. Type of assay: binding. As to conditions: 20 μM ligand. Here is the method: as §1, §2

T1 sequence (Q13285 219-461): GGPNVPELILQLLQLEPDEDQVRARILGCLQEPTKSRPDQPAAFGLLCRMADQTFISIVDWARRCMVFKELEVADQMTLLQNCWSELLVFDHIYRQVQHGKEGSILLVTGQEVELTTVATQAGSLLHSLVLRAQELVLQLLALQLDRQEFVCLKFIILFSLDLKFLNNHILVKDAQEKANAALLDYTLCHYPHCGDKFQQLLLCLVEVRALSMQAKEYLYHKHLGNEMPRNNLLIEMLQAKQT

`Cc1ccc(-n2ncc3c(N4CCOCC4)nc(NCc4ccco4)nc32)cc1` [Ligand 34, N-[(furan-2-yl)methyl]-1-(4-methylphenyl)-4-(morpholin-4-yl)-1H-pyrazolo[3,4-d]pyrimidin-6-amine]: the “expression of pluripotency marker Sox2” value in assay [1] is given as “substantially decreased”. Moreover, the “change of Tm of SF-1 LBD” value at SF-1 (NR5A1) LBD was “did not significantly change”. In addition, in assay [2], the GCNF gene expression entry is “not affected”, the “NR5A1 (SF-1) expression” value is reported as “significantly promoted the expression”, the “NR5A2 (LRH-1) expression” value was “significantly promoted the expression” and the Nanog expression entry is given as “significantly promoted the expression”. Moreover, in assay [2], the Oct4 expression result is recorded as “significantly promoted the expression”, the “carnitine palmitoyltransferase 1a (CPT1a) expression” value is “significantly increased”, the “diglyceride acyltransferase-1 (DGAT1) expression” value was “significantly promoted the expression” and the “diglyceride acyltransferase-2 (DGAT2) expression” value is on record as “no significant effect”. In assay [2], the “fatty acid synthase (FASN) expression” value is listed as “no significant effect” and the “phosphoenolpyruvate carboxykinase (PEPCK) expression” value is “upregulated”. In addition, the “effect of mutation F361A on ΔTm compared to WT” value at GCNF LBD F361A is on record as “substantially decreased the ΔTm”.
As for `O=C(Cn1cc(S(=O)(=O)c2ccccc2)c2ccccc21)N1CCc2ccccc21` [Ligand 80, 2-[3-(benzenesulfonyl)-1H-indol-1-yl]-1-(2,3-dihydro-1H-indol-1-yl)ethan-1-one], in assay [1], the “expression of neuronal marker MAPT” value was “substantially increased” and the “expression of pluripotency marker Sox2” value is “substantially decreased”. At SF-1 (NR5A1) LBD, the “change of Tm of SF-1 LBD” value is “did not significantly change”. In assay [2], the GCNF gene expression result was “not affected”; the “NR5A1 (SF-1) expression” value is “but not 80, significantly promoted the expression”; the Oct4 expression result is given as “but not 80, significantly promoted the expression”; the “carnitine palmitoyltransferase 1a (CPT1a) expression” value is listed as “no effect”. Further, in assay [2], the “diglyceride acyltransferase-1 (DGAT1) expression” value is listed as “but not 80, significantly promoted the expression”; the “diglyceride acyltransferase-2 (DGAT2) expression” value is on record as “no significant effect”; the “fatty acid synthase (FASN) expression” value is given as “no significant effect”; the “phosphoenolpyruvate carboxykinase (PEPCK) expression” value is listed as “upregulated”. Also, the “effect of mutation F361A on ΔTm compared to WT” value at GCNF LBD F361A was “completely abrogated the interaction”.
